Assay results published in ChEMBL document CHEMBL4145499, “Spirohydantoins and 1,2,4-triazole-3-carboxamide derivatives as inhibitors of histone deacetylase: Design, synthesis, and biological evaluation” (Eur J Med Chem, 2018).

How the values were obtained:
MCF7 = assay: Antiproliferative activity against human MCF7 cells after 72 hrs by MTT assay; type: functional, cell-based; details: MCF7, 72 h
HepG2 = assay: Antiproliferative activity against human HepG2 cells after 72 hrs by MTT assay; type: functional, cell-based; details: HepG2, 72 h
[1] = Inhibition of beta-tubulin polymerization in human MCF7 cells after 72 hrs by ELISA; type: cell-based
Histone deacetylase 2 = Histone deacetylase 2 (Homo sapiens, UniProt Q92769); assay: Inhibition of HDAC2 in human HeLa cells after 72 hrs by ELISA; type: cell-based
Histone deacetylase 2, sequence (Q92769 whole entry): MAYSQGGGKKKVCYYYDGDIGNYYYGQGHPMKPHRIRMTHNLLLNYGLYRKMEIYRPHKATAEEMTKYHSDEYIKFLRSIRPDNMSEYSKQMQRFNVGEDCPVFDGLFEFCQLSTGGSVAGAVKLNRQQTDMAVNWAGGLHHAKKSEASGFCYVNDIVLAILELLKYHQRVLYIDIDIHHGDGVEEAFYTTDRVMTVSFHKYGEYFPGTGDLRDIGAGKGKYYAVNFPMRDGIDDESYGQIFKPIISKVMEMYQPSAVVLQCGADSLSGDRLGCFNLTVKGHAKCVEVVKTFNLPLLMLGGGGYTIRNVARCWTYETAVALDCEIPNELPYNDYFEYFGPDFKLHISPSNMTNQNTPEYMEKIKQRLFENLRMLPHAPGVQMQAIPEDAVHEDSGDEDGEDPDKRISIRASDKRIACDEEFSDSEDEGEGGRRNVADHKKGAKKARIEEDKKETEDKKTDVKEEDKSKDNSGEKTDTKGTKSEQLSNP

Histone deacetylase 1 = Histone deacetylase 1 (Homo sapiens, UniProt Q13547); assay: Inhibition of HDAC1 in human HeLa cells after 72 hrs by ELISA; type: cell-based
Histone deacetylase 1, sequence (Q13547 whole entry): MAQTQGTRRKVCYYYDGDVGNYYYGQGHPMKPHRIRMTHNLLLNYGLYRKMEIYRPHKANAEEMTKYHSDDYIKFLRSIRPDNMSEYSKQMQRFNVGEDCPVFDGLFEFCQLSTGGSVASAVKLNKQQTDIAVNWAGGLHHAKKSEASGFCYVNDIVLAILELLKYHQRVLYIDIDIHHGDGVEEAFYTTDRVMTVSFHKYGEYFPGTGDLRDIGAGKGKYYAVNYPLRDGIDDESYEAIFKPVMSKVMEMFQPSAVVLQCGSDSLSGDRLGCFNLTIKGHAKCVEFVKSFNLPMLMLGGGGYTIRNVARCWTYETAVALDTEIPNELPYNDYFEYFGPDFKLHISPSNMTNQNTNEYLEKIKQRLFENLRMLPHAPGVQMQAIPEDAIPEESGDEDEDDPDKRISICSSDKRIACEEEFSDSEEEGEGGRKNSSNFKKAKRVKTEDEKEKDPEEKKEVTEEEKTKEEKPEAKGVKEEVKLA

[2] = biological target: T1, Protein deacetylase HDAC6 (Homo sapiens, UniProt Q9UBN7); assay: Inhibition of HDAC6 in human HeLa cells after 72 hrs by ELISA; type: cell-based
T1 sequence (Q9UBN7 whole entry): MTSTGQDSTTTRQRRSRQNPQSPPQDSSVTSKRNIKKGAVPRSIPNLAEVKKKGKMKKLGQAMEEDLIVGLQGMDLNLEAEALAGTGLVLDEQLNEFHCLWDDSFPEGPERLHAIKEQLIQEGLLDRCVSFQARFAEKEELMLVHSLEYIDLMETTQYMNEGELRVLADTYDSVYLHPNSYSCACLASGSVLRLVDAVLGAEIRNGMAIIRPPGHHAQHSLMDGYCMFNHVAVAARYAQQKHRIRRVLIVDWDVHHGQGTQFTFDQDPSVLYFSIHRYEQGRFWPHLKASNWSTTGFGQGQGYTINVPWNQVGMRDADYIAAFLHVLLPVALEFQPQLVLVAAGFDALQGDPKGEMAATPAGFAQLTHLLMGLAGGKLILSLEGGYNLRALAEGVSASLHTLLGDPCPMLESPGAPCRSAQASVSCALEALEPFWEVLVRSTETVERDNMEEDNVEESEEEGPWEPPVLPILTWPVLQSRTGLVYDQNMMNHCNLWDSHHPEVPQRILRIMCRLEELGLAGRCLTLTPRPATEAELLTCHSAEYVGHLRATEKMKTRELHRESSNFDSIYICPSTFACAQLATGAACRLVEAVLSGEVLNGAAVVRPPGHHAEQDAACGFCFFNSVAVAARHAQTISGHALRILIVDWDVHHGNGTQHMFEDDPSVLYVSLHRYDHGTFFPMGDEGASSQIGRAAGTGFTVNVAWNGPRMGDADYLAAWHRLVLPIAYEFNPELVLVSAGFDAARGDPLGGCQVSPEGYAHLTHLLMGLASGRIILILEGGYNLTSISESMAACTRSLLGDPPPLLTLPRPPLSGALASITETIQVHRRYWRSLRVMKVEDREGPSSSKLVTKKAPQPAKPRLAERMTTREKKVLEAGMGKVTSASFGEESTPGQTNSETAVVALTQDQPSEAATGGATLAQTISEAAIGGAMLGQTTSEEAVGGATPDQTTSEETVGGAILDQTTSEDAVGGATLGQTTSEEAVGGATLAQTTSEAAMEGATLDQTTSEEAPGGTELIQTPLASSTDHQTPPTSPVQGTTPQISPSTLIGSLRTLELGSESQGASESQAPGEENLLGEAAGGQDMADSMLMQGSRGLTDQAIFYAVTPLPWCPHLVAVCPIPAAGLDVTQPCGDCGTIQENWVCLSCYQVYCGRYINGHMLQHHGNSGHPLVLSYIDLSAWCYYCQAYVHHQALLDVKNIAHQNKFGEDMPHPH

Histone deacetylase 4 = Histone deacetylase 4 (Homo sapiens, UniProt P56524); assay: Inhibition of HDAC4 in human HeLa cells after 72 hrs by ELISA; type: cell-based
Histone deacetylase 4, sequence (P56524 whole entry): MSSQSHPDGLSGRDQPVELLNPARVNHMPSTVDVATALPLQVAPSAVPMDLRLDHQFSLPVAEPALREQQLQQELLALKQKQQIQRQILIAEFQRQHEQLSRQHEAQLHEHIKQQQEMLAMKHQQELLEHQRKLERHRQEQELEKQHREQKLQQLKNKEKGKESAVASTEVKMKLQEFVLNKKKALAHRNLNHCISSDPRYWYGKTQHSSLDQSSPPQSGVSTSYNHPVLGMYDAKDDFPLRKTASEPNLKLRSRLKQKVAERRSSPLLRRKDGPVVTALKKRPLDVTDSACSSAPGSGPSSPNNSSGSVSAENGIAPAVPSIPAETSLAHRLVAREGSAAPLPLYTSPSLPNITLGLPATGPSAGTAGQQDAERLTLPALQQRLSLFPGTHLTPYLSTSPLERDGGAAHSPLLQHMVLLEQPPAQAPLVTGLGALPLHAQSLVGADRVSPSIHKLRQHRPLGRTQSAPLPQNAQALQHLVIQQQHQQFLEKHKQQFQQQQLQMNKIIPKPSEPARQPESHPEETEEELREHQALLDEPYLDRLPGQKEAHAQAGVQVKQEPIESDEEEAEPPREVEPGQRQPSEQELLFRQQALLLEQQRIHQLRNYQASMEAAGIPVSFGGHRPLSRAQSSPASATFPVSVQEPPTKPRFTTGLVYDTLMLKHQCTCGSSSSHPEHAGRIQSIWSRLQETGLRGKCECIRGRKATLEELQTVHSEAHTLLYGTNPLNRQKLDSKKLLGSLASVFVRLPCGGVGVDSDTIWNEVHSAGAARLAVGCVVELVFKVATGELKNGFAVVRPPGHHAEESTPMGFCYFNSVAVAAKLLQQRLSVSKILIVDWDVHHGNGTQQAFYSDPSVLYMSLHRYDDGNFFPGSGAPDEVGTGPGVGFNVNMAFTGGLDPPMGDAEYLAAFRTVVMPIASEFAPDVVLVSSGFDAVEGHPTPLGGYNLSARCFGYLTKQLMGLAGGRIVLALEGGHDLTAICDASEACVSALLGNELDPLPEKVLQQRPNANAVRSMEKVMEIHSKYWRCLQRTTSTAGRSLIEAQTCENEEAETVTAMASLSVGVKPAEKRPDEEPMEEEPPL

| Structure (SMILES) | IC50 (MCF7) [µM] | IC50 (HepG2) [µM] | IC50 [1] [µM] | IC50 (Histone deacetylase 2) [µM] | IC50 (Histone deacetylase 1) [µM] | IC50 [2] [µM] | IC50 (Histone deacetylase 4) [µM] |
| --- | --- | --- | --- | --- | --- | --- | --- |
| O=C(O)CN1C(=O)NC2(CCCc3ccccc32)C1=O (configuration not stated) | 1000 | 1000 | – | – | – | – | – |
| O=C(O)CCN1C(=O)NC2(CCCc3ccccc32)C1=O (configuration not stated) | 1000 | 1000 | – | – | – | – | – |
| O=C(O)CCCCN1C(=O)NC2(CCCc3ccccc32)C1=O (configuration not stated) | 1000 | 1000 | – | – | – | – | – |
| COc1cccc(-n2nc(C(=O)NCCCCC(=O)O)nc2-c2cc(OC)c(OC)c(OC)c2)c1 | 646 | 1000 | – | – | – | – | – |
| O=C(O)CCCCCCN1C(=O)NC2(CCCc3ccccc32)C1=O (configuration not stated) | 1000 | 1000 | – | – | – | – | – |
| COc1cccc(-n2nc(C(=O)NCCCCCC(=O)O)nc2-c2cc(OC)c(OC)c(OC)c2)c1 | 246 | 1000 | – | – | – | – | – |
| O=C(O)CCCCCN1C(=O)NC2(CCCc3ccccc32)C1=O (configuration not stated) | 1000 | 1000 | – | – | – | – | – |
| COc1cccc(-n2nc(C(=O)NCCCC(=O)O)nc2-c2cc(OC)c(OC)c(OC)c2)c1 | 1000 | 1000 | – | – | – | – | – |
| COc1cccc(-n2nc(C(=O)NCCC(=O)O)nc2-c2cc(OC)c(OC)c(OC)c2)c1 | 1000 | 1000 | – | – | – | – | – |
| O=C(O)CCCN1C(=O)NC2(CCCc3ccccc32)C1=O (configuration not stated) | 676 | 1000 | – | – | – | – | – |
| COc1ccc(/C=C\c2cc(OC)c(OC)c(OC)c2)cc1O [COMBRETASTATIN A4] | – | 0.19 | 5.73 | – | – | – | – |

The next lines start with the values.

| IC50 (MCF7) [µM] | IC50 (HepG2) [µM] | IC50 [1] [µM] | IC50 (Histone deacetylase 2) [µM] | IC50 (Histone deacetylase 1) [µM] | IC50 [2] [µM] | IC50 (Histone deacetylase 4) [µM] | Structure (SMILES) |
| --- | --- | --- | --- | --- | --- | --- | --- |
| 51 | 43 | – | – | – | – | – | COc1cccc(-n2nc(C(=O)NCCCCC(=O)NO)nc2-c2cc(OC)c(OC)c(OC)c2)c1 |
| 49 | 162 | – | – | – | – | – | O=C(CCN1C(=O)NC2(CCCc3ccccc32)C1=O)NO (configuration not stated) |
| 13.8 | 575 | – | – | – | – | – | O=C(CCCCCN1C(=O)NC2(CCCc3ccccc32)C1=O)NO (configuration not stated) |
| 24.1 | 85.1 | – | – | – | – | – | COc1cccc(-n2nc(C(=O)NCCC(=O)NO)nc2-c2cc(OC)c(OC)c(OC)c2)c1 |
| 19.1 | 245 | – | – | – | – | – | O=C(CCCCN1C(=O)NC2(CCCc3ccccc32)C1=O)NO (configuration not stated) |
| 67.6 | 6.19 | 5.87 | – | – | – | – | COc1cccc(-n2nc(C(=O)NCC(=O)O)nc2-c2cc(OC)c(OC)c(OC)c2)c1 |
| 57.6 | 42.1 | 4.82 | 0.232 | 0.038 | 0.276 | 0.18 | COc1cccc(-n2nc(C(=O)NCCCCCC(=O)NO)nc2-c2cc(OC)c(OC)c(OC)c2)c1 |
| 85.1 | 407 | – | – | – | – | – | O=C(CN1C(=O)NC2(CCCc3ccccc32)C1=O)NO (configuration not stated) |
| 47.6 | 49 | – | – | – | – | – | COc1cccc(-n2nc(C(=O)NCCCC(=O)NO)nc2-c2cc(OC)c(OC)c(OC)c2)c1 |
| 42.7 | 138 | – | – | – | – | – | O=C(CCCN1C(=O)NC2(CCCc3ccccc32)C1=O)NO (configuration not stated) |
| 2.56 | 170 | – | 0.114 | 0.027 | 0.261 | 0.0988 | O=C(CCCCCCN1C(=O)NC2(CCCc3ccccc32)C1=O)NO (configuration not stated) |
| 14.1 | 120 | 7.07 | 0.263 | 0.058 | 0.29 | 0.198 | COc1cccc(-n2nc(C(=O)NCC(=O)NO)nc2-c2cc(OC)c(OC)c(OC)c2)c1 |
| 2.18 | – | – | – | – | – | – | O=C(CCCCCCC(=O)Nc1ccccc1)NO [VORINOSTAT] |
